Measured values published in ChEMBL document CHEMBL5252532, “Oxindole: A chemical prism carrying plethora of therapeutic benefits” (Eur J Med Chem, 2016).
Values after ≈ are worked out from the molar mass of the structure shown.

What was measured:
[1] = test system: MDA-MB-435; assay: Anticancer activity against human MDA-MB-435 cells assessed as cell growth inhibition by MTT assay; type: functional, cell-based
[2] = test system: RKO; assay: Anticancer activity against human RKO cells assessed as cell growth inhibition by MTT assay; type: functional, cell-based
[3] = test system: MGC-803; assay: Anticancer activity against human MGC-803 cells assessed as cell growth inhibition incubated for 24 hrs by MTT assay; type: functional, cell-based; settings: MGC-803, 24 h
[4] = test system: T-24; assay: Anticancer activity against human T24 cells assessed as cell growth inhibition incubated for 24 hrs by MTT assay; type: functional, cell-based; settings: T-24, 24 h
[5] = species on record: Homo sapiens; assay: Inhibition of ERK (unknown origin) at 100 uM by western blot assay relative to control
[6] = test system: GAMG; assay: Anticancer activity against human GAMG cells assessed as cell growth inhibition; type: functional, cell-based
[7] = test system: SK-N-BE(2); assay: Anticancer activity against human SKNBE2 cells assessed as cell growth inhibition; type: functional, cell-based
[8] = test system: MCF7; assay: Growth inhibition of human MCF7 cells; type: functional
[9] = molecular target: Aldo-keto reductase family 1 member B1 (Homo sapiens, UniProt P15121); assay: Inhibition of AR (unknown origin) assessed as glycation activity
[10] = test system: Staphylococcus aureus; assay: Antibacterial activity against Staphylococcus aureus assessed as bacterial growth inhibition; type: functional
[11] = test system: Escherichia coli; assay: Antibacterial activity against Escherichia coli assessed as bacterial growth inhibition; type: functional
[12] = molecular target: Cyclin-dependent kinase 1 (Homo sapiens, UniProt P06493); assay: Inhibition of human CDK1 using Biotinaminohexyl-Ala-Arg-Arg-Pro-Met-Ser-Pro-Lys-LysLys-Ala-CONH2 peptide as substrate incubated for 20 to 30 mins by scintillation counter analysis
Sequence of Cyclin-dependent kinase 1 (P06493 whole entry): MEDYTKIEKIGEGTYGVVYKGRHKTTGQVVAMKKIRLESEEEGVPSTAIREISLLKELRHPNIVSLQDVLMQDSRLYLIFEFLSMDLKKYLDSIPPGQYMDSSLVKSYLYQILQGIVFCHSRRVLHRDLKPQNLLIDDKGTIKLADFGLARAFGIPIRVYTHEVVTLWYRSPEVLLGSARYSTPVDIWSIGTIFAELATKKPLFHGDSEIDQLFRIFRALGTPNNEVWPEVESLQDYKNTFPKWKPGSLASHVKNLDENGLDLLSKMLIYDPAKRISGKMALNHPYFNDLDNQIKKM

[13] = molecular target: Cyclin-dependent kinase 2 (Homo sapiens, UniProt P24941); assay: Inhibition of human CDK2 […]-Pro-Met-Ser-Pro-Lys-LysLys-Ala-CONH2 peptide as substrate incubated for 30 to 60 mins by scintillation counter analysis
[14] = test system: A549; assay: Anticancer activity against human A549 cells assessed as cell growth inhibition; type: functional, cell-based
[15] = test system: Pseudomonas aeruginosa; assay: Antibacterial activity against Pseudomonas aeruginosa assessed as bacterial growth inhibition; type: functional
[16] = test system: Streptococcus pyogenes; assay: Antibacterial activity against Streptococcus pyogenes assessed as bacterial growth inhibition; type: functional
[17] = molecular target: Vascular endothelial growth factor receptor 1 (Homo sapiens, UniProt P17948); assay: Inhibition of VEGFR1 (unknown origin) in presence of ATP
Sequence of Vascular endothelial growth factor receptor 1 (P17948 whole entry): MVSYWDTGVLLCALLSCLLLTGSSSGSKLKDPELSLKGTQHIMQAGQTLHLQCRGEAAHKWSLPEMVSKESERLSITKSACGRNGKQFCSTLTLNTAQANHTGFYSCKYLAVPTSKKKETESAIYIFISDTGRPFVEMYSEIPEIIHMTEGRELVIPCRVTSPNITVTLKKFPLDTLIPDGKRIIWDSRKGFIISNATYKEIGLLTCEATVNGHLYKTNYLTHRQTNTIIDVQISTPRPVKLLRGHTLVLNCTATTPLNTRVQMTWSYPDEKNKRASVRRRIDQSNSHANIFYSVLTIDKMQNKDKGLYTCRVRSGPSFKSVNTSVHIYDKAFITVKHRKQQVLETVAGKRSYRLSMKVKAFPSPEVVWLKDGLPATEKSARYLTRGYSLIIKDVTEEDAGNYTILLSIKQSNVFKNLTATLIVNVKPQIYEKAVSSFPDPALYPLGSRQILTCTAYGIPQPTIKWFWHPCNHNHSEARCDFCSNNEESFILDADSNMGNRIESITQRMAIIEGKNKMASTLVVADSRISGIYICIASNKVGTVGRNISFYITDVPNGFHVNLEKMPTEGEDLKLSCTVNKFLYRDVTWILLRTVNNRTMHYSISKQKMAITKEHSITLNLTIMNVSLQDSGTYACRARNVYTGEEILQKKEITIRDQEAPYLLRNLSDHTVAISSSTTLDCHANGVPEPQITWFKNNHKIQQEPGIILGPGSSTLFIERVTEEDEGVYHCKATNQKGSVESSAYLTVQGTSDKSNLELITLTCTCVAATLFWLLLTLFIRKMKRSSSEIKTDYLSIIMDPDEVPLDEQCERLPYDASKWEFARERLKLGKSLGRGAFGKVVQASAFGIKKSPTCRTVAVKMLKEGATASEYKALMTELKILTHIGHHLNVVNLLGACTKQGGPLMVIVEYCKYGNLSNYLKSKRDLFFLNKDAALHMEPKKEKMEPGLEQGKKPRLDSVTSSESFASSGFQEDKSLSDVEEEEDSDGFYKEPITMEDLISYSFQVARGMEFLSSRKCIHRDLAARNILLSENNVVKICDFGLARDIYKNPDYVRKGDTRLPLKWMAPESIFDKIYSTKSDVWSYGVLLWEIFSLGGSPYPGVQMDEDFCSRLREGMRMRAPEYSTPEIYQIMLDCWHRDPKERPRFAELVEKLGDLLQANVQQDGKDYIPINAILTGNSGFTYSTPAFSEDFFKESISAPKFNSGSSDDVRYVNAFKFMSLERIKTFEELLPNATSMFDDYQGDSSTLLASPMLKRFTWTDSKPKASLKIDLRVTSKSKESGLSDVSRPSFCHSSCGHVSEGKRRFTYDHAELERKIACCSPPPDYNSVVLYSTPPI

[18] = molecular target: High affinity nerve growth factor receptor (Homo sapiens, UniProt P04629); assay: Inhibition of TrkA (unknown origin)
Sequence of High affinity nerve growth factor receptor (P04629 whole entry): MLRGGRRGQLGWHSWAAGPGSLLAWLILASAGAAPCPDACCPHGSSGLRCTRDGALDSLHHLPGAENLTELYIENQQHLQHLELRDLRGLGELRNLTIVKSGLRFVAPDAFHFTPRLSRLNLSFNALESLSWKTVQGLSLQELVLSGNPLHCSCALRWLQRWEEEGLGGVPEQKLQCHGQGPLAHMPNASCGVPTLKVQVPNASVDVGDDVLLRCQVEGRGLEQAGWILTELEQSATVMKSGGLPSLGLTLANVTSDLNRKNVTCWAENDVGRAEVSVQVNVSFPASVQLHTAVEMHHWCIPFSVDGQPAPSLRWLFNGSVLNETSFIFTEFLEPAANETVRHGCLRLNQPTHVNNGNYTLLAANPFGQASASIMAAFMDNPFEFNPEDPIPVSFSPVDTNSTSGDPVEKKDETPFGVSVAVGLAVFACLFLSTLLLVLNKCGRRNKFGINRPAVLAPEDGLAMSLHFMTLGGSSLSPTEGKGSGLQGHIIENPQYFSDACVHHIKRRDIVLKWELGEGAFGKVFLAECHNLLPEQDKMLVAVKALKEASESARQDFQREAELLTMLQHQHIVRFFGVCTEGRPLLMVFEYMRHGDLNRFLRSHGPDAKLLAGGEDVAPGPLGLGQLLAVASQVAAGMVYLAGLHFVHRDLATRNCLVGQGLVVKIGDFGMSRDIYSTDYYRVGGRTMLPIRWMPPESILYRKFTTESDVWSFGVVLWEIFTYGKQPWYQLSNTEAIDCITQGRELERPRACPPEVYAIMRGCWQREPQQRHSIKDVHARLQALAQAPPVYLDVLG

[19] = test system: Mycobacterium tuberculosis; assay: Antitubercular activity against Mycobacterium tuberculosis H37Rv strain assessed as bacterial growth inhibition; type: functional

## COc1cc[nH]c1/C=C1\C(=O)Nc2ccc([N+](=O)[O-])c(N3CC[C@@H](N)C3)c21
[1]
  IC50: < 10 µM
[2]
  IC50: < 10 µM

## CC(=O)O[C@H]1CC[C@@]2(C)C(=CC[C@@H]3[C@@H]2CC[C@]2(C)C4=C(C#N)C(=N)OC5(C(=O)N(Cc6c(F)cccc6F)c6ccccc65)C4C[C@@H]32)C1 (stereo partly specified)
[3]
  IC50: 8.45 µM
[4]
  IC50: 4.43 µM

## O=C1Nc2ccccc2C1=O
[5]
  inhibition: 35%

## COC(=O)C1=CO[C@@H](C)[C@H]2CN3CC[C@]4(C(=O)Nc5ccccc54)[C@@H]3C[C@H]12
[6]
  IC50: 12.3 µM
[7]
  IC50: 20 µM

## CN1C(=O)O[C@]2(C[C@H]1c1ccccc1)C(=O)Nc1ccccc12
[8]
  GI50: 2.6 µM

## C[C@@H]1O[C@@H](OC[C@H]2O[C@@H](Oc3c(-c4ccc(O)c(O)c4)oc4cc(O)cc(O)c4c3=O)[C@H](O)[C@@H](O)[C@@H]2O)[C@H](O)[C@H](O)[C@H]1O [RUTIN]
[9]
  IC50: 295 µM

## CC(=O)O[C@H]1CC[C@@]2(C)C(=CC[C@@H]3[C@@H]2CC[C@]2(C)C4=C(C#N)C(=N)OC5(C(=O)N(Cc6ccc(C)cc6)c6ccccc65)C4C[C@@H]32)C1 (stereo partly specified)
[3]
  IC50: 8.45 µM
[4]
  IC50: 4.43 µM

## CC1(C)CC(=O)C2=C(C1)NC(=S)NC21C(=O)Nc2ccc(Br)cc21 (stereo unspecified)
[10]
  MIC: 500 µg
[11]
  MIC: 500 µg

## O=C1Nc2ccc3ncsc3c2/C1=C/Nc1ccc(S(=O)(=O)NCCOCCO)cc1
[12]
  IC50: 0.00054 µM
[13]
  IC50: 0.012 µM

## O=C1Cc2cc(O)ccc2N1
[5]
  inhibition: 35%

## O=C1Nc2ncccc2C12CCN(Cc1ccccc1OC(F)(F)F)CC2
[14]
  IC50: 0.05 µM

## Cc1ccc(S(=O)(=O)N2CCN(c3ccc(/C=C4/C(=O)Nc5ccccc54)cc3)CC2)cc1
[10]; Staphylococcus aureus, read-out: MIC
  MIC: 25 µg/mL (≈ 54.4 µM)
[15]
  MIC: 25 µg/mL (≈ 54.4 µM)
[16]
  MIC: 25 µg/mL (≈ 54.4 µM)
[11]; Escherichia coli, read-out: MIC
  MIC: 25 µg/mL (≈ 54.4 µM)

## O=C1Nc2ccccc2/C1=C/c1cccc(Cl)c1
[9]
  IC50: 150 µM

## Cc1cc(CCC(=O)O)c(/C=C2\C(=O)Nc3ccccc32)[nH]1
[17]
  IC50: 0.096 µM

## O=C1Nc2ccccc2/C1=C/Nc1ccc(-n2nccn2)cc1
[18]
  IC50: 0.008 µM

## Cc1ccc(CN2C(=O)/C(=N/NC(=O)c3ccccc3)c3cc(C)ccc32)cc1
[19]
  MIC: 25 µg/mL (≈ 65.2 µM)

## Cc1ccc(O)c(/C=C2\C(=O)Nc3ccccc32)c1
[9]
  IC50: 195 µM
